Test results published in PubChem BioAssay (NCI).
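GI50 marks 50% less growth. At the TGI there is no net growth.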

Key:
Test in all cases: growth of human tumour cells (NCI), 384-well format
NCI-H226 lung = test system: NCI-H226 lung
NCI-H23 lung = test system: NCI-H23 lung
NCI-H322M lung = test system: NCI-H322M lung
NCI-H460 NSCLC = test system: NCI-H460 NSCLC
NCI-H522 lung = test system: NCI-H522 lung
NCI/ADR-RES ovarian = test system: NCI/ADR-RES ovarian
OVCAR-3 ovarian = test system: OVCAR-3 ovarian
OVCAR-4 ovarian = test system: OVCAR-4 ovarian
OVCAR-5 ovarian = test system: OVCAR-5 ovarian
OVCAR-8 ovarian = test system: OVCAR-8 ovarian
PC-3 prostate = test system: PC-3 prostate
RPMI-8226 leukemia = test system: RPMI-8226 leukemia
RXF 393 renal = test system: RXF 393 renal
SF-268 CNS = test system: SF-268 CNS
SF-295 CNS = test system: SF-295 CNS
SF-539 CNS = test system: SF-539 CNS
SK-MEL-28 melanoma = test system: SK-MEL-28 melanoma
SK-MEL-5 melanoma = test system: SK-MEL-5 melanoma
SK-OV-3 ovarian = test system: SK-OV-3 ovarian
SN12C renal = test system: SN12C renal
SNB-19 CNS = test system: SNB-19 CNS
SNB-75 CNS = test system: SNB-75 CNS
SR leukemia = test system: SR leukemia
SW-620 colon = test system: SW-620 colon
T-47D breast = test system: T-47D breast
TK-10 renal = test system: TK-10 renal
U251 glioblastoma = test system: U251 glioblastoma
UACC-257 melanoma = test system: UACC-257 melanoma
UO-31 renal = test system: UO-31 renal

Cc1ccc(NC(=O)c2cccc(N(C)C)c2)cc1NC(=O)c1ccc(O)cc1
GI50 (NCI-H226 lung): 39.6 µM
TGI (NCI-H226 lung): > 100 µM
GI50 (NCI-H23 lung): 29.3 µM
TGI (NCI-H23 lung): > 100 µM
GI50 (NCI-H322M lung): 56.7 µM
TGI (NCI-H322M lung): > 100 µM
GI50 (NCI-H460 NSCLC): 30.6 µM
TGI (NCI-H460 NSCLC): > 100 µM
GI50 (NCI-H522 lung): 29.4 µM
TGI (NCI-H522 lung): > 100 µM
GI50 (NCI/ADR-RES ovarian): 38.9 µM
TGI (NCI/ADR-RES ovarian): > 100 µM
GI50 (OVCAR-3 ovarian): 36.9 µM
TGI (OVCAR-3 ovarian): > 100 µM
GI50 (OVCAR-4 ovarian): 33.8 µM
TGI (OVCAR-4 ovarian): > 100 µM
GI50 (OVCAR-5 ovarian): 69.8 µM
TGI (OVCAR-5 ovarian): > 100 µM
GI50 (OVCAR-8 ovarian): 37.3 µM
TGI (OVCAR-8 ovarian): > 100 µM
GI50 (PC-3 prostate): 41.6 µM
TGI (PC-3 prostate): > 100 µM
GI50 (RPMI-8226 leukemia): 12.7 µM
TGI (RPMI-8226 leukemia): 34.1 µM
GI50 (RXF 393 renal): 16.6 µM
TGI (RXF 393 renal): 33.2 µM
GI50 (SF-268 CNS): 48.4 µM
TGI (SF-268 CNS): > 100 µM
GI50 (SF-295 CNS): 25.9 µM
TGI (SF-295 CNS): 81.4 µM
GI50 (SF-539 CNS): 42.8 µM
TGI (SF-539 CNS): > 100 µM
GI50 (SK-MEL-28 melanoma): 26.3 µM
TGI (SK-MEL-28 melanoma): 74.1 µM
GI50 (SK-MEL-5 melanoma): 14.9 µM
TGI (SK-MEL-5 melanoma): 52.5 µM
GI50 (SK-OV-3 ovarian): 43.2 µM
TGI (SK-OV-3 ovarian): > 100 µM
GI50 (SN12C renal): 57 µM
TGI (SN12C renal): > 100 µM
GI50 (SNB-19 CNS): 89.8 µM
TGI (SNB-19 CNS): > 100 µM
GI50 (SNB-75 CNS): 54.4 µM
TGI (SNB-75 CNS): > 100 µM
GI50 (SR leukemia): 15 µM
TGI (SR leukemia): 33.5 µM
GI50 (SW-620 colon): 59.2 µM
TGI (SW-620 colon): > 100 µM
GI50 (T-47D breast): 15.1 µM
TGI (T-47D breast): 33.6 µM
GI50 (TK-10 renal): 26.8 µM
TGI (TK-10 renal): 91.2 µM
GI50 (U251 glioblastoma): 63.5 µM
TGI (U251 glioblastoma): > 100 µM
GI50 (UACC-257 melanoma): 25.1 µM
TGI (UACC-257 melanoma): 69.1 µM
GI50 (UO-31 renal): 30.4 µM
TGI (UO-31 renal): > 100 µM
